Consider 30 molecules from patent publication US9586959B2, “Substituted tricyclic heterocycles as histamine 4 receptor inhibitors” (C&C RESEARCH LABORATORIES, priority 2011, dated 2017).

The target of the assay is human histamine 3 receptor (hH3R) (Homo sapiens (Human), UniProt Q9Y5N1). Kind of assay: Binding affinity of human histamine 3 receptor (hH3R), [3H] labeled N-α-methylhistamine displacement. The settings on record: hH3R-overexpressed cell membrane, [3H] N-α-methylhistamine. As to the method: 10 μL of the prepared compound solution was allocated in each well of a 96-well plate, and then 10 μL of 200 μM (R)(−)-α-methylhistamine (RaMH) diluted with analysis buffer and 1% of DMSO were transferred to each well to calculate non-specific binding and total binding degree. 15 μg of human histamine 3 receptor-overexpressed cell membrane (PerkinElmer) was diluted with 180 μL of analysis buffer solution (50 mM tris-HCl pH 7.4, 5 mM MgCl2), and that was transferred to each well. [^3H] labeled Na-methylhistamine (PerkinElmer) was diluted into […], 10 μL of that was added to each well, and then it was kept in a 27° C. incubator for 30 minutes. After the reaction, 200 μL of the mixture was transferred to a glass fiber plate in which 0.5% polyethylene amine was presoaked, and then non-binding [^3H] labeled Na-methylhistamine was removed in vacuum. After 5 times washing with 200 μL of washing buffer solution (50 mM tris-HCl, pH 7.4), the plate was dried in a 37° C. oven for 18 hours. 100 μL of betascint cocktail solution was added to each well, and after 1 hour CPM of [^3H] labeled N-α-methylhistamine was measured by using Wallac beta-counter TriLux. The binding affinity (IC50) of the human histamine 3 receptor for the present invention was analyzed by an Excel program, and the results of analysis are shown in Table 2.
human histamine 3 receptor (hH3R), sequence (Q9Y5N1 whole entry): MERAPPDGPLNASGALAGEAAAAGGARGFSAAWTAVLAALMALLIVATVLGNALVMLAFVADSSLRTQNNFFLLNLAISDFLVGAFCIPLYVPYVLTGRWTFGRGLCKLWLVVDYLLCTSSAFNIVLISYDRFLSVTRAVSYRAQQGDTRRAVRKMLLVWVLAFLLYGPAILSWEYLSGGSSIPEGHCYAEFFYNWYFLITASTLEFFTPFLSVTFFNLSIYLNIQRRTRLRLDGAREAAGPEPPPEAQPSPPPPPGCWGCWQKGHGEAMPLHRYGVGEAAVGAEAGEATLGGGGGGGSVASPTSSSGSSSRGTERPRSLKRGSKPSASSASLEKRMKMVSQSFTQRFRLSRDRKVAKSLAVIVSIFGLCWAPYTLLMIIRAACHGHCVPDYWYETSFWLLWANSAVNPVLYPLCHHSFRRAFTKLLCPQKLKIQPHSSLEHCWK
A word on the IC50: it is the concentration that gives 50% inhibition. The low end stands for inhibition by little substance, the high end for a need for much substance. `CNC1CN(C2=Nc3ncc(Br)cc3N3C[C@@H](C)N=C23)C1` [Compound 106, (R)-1-(8-bromo-2-methyl-1,2-dihydroimidazo[1,2-a]pyrido[2,3-e]pyrazin-4-yl)-N-methylazetidin-3-amine] showed an IC50 of more than 100 µM.

As for `CCc1nc2c3cc(Cl)cnc3nc(N3CCN(C)CC3)n2n1` [Compound 41, 9-Chloro-2-ethyl-5-(4-methylpiperazin-1-yl)pyrido[3,2-e][1,2,4]triazolo[1,5-c]pyrimidine], the IC50 was more than 100 µM.

In turn, `CNC1CN(c2nc3ncc(O)cc3n3cnnc23)C1` [Compound 57, 4-(3-(Methylamino)azetidin-1-yl)pyrido[2,3-e][1,2,4]triazolo[4,3-a]pyrazin-8-ol] gave an IC50 of more than 100 µM.

In turn, `CNC1CN(c2nc3ncc(Br)cc3c3cc(C)nn23)C1` [Compound 109, 1-(9-bromo-2-methylpyrazolo[1,5-c]pyrido[3,2-e]pyrimidin-5-yl)-N-methylazetidin-3-amine] displayed an IC50 of more than 100 µM.

As for `CN1CCN(c2nc3cc(Cl)cnc3n3cnnc23)CC1` [Compound 5, 3-Chloro-6-(4-methylpiperazin-1-yl)pyrido[3,2-e][1,2,4]triazolo[4,3-a]pyrazine], the IC50 is more than 100 µM.

`CN(C)C1CN(c2nc3ncc(Br)cc3n3cnnc23)C1` [Compound 85, 1-(8-Bromopyrido[2,3-e][1,2,4]triazolo[4,3-a]pyrazin-4-yl)-N,N-dimethylazetidin-3-amine] yielded a half-maximal inhibitory concentration (IC50) of more than 100 µM.

`CN1CC2CN(c3nc4ncc(Br)cc4n4cnnc34)CC2C1` (stereo not drawn) [Compound 71, 8-Bromo-4-(5-methylhexahydropyrrolo[3,4-c]pyrrole-2(1H)-yl)pyrido[2,3-e][1,2,4]triazolo[4,3-a]pyrazine] displayed an IC50 of more than 100 µM.

`N[C@@H]1CCN(c2nc3ncc(Cl)cc3n3cnnc23)C1` [Compound 30, (R)-1-(8-chloropyrido[2,3-e][1,2,4]triazolo[4,3-a]pyrazin-4-yl)pyrrolidin-3-amine] came in with a concentration for half-maximal inhibition (IC50) of more than 100 µM.

The molecule `Clc1cnc2nc(N3CCN(C4CC4)CC3)c3nncn3c2c1` [Compound 76, 8-Chloro-4-(4-cyclopropylpiperazin-1-yl)pyrido[2,3-e][1,2,4]triazolo[4,3-a]pyrazine] had an IC50 of more than 100 µM.

`CNC1CN(c2nc3ncc(-c4ccccc4)cc3n3cnnc23)C1` [Compound 113, N-methyl-1-(8-phenylpyrido[2,3-e][1,2,4]triazolo[4,3-a]pyrazin-4-yl)azetidin-3-amine] displayed an IC50 of more than 100 µM.

On to `CNC1CN(C2=Nc3ncc(Br)cc3N3C[C@H](C)N=C23)C1` [Compound 105, (S)-1-(8-bromo-2-methyl-1,2-dihydroimidazo[1,2-a]pyrido[2,3-e]pyrazin-4-yl)-N-methylazetidin-3-amine], for which the IC50 was more than 100 µM.

With `CNC1CN(c2nc3ncc(Br)cc3n3cccc23)C1` [Compound 115, 1-(2-bromopyrido[2,3-e]pyrrolo[1,2-a]pyrazin-6-yl)-N-methylazetidin-3-amine], the IC50 is more than 100 µM.

Turning to `CN1CCCC2CN(c3nc4ncc(Cl)cc4n4cnnc34)CC21` (stereo not drawn) [Compound 83, 8-Chloro-4-(1-methylhexahydro-1H-pyrrolo[3,4-b]pyridin-6(2H)-yl)pyrido[2,3-e][1,2,4]triazolo[4,3-a]pyrazine], the IC50 is more than 100 µM.

`CN[C@@H]1CCN(c2nc3cc(Cl)cnc3n3cnnc23)C1` [Compound 11, (R)-1-(3-chloropyrido[3,2-e][1,2,4]triazolo[4,3-a]pyrazin-6-yl)-N-methylpyrrolidin-3-amine] yielded an IC50 of more than 100 µM.

As to `Cc1cnc2c(c1)nc(N1CCN(C)CC1)c1nncn12` [Compound 1, 3-Methyl-6-(4-methylpiperazin-1-yl)pyrido[3,2-e][1,2,4]triazolo[4,3-a]pyrazine], the IC50 is more than 100 µM.

As to `CN1CC2CN(c3nc4ncc(Cl)cc4n4cnnc34)CC2C1` (stereo not drawn) [Compound 70, 8-Chloro-4-(5-methylhexahydropyrrolo[3,4-c]pyrrole-2(1H)-yl)pyrido[2,3-e][1,2,4]triazolo[4,3-a]pyrazine], the IC50 was more than 100 µM.

In turn, `Clc1cnc2nc(N3CCNCC3)n3ncnc3c2c1` [Compound 37, 9-Chloro-5-(piperazin-1-yl)pyrido[3,2-e][1,2,4]triazolo[1,5-c]pyrimidine] returned an IC50 of more than 100 µM.

Take `Cc1nnc2c(N3CCNCC3)nc3ncc(Cl)cc3n12` [Compound 15, 8-Chloro-1-methyl-4-(piperazin-1-yl)pyrido[2,3-e][1,2,4]triazolo[4,3-a]pyrazine]: the IC50 is more than 100 µM.

In turn, `Clc1cnc2nc(N3CCCNCC3)c3nncn3c2c1` [Compound 79, 8-Chloro-4-(1,4-diazepan-1-yl)pyrido[2,3-e][1,2,4]triazolo[4,3-a]pyrazine] showed an IC50 of more than 100 µM.

In the case of `Clc1cnc2nc(N3CC4CCCNC4C3)c3nncn3c2c1` (stereo not drawn) [Compound 82, 8-Chloro-4-(hexahydro-1H-pyrrolo[3,4-b]pyridin-6(2H)-yl)pyrido[2,3-e][1,2,4]triazolo[4,3-a]pyrazine], the IC50 is more than 100 µM.

For the molecule `COc1nc2nc(N3CCNCC3)c3nncn3c2cc1Cl` [Compound 61, 8-Chloro-7-methoxy-4-(piperazin-1-yl)pyrido[2,3-e][1,2,4]triazolo[4,3-a]pyrazine], the IC50 is more than 100 µM.

On to `COCc1nc2c3cc(Cl)cnc3nc(N3CCN(C)CC3)n2n1` [Compound 40, 9-Chloro-2-(methoxymethyl)-5-(4-methylpiperazin-1-yl)pyrido[3,2-e][1,2,4]triazolo[1,5-c]pyrimidine], for which the IC50 is more than 100 µM.

Regarding `CNC1CN(c2nc3ncc(Br)cc3n3cc(C)nc23)C1` [Compound 108, 1-(8-bromo-2-methylimidazo[1,2-a]pyrido[2,3-e]pyrazin-4-yl)-N-methylazetidin-3-amine], the IC50 is more than 100 µM.

Molecule `CN(C)C1CN(c2nc3ncc(Cl)cc3n3cnnc23)C1` [Compound 84, 1-(8-Chloropyrido[2,3-e][1,2,4]triazolo[4,3-a]pyrazin-4-yl)-N,N-dimethylazetidin-3-amine] showed an IC50 of more than 100 µM.

Regarding `CN1CCN(c2nc3cccnc3n3cnnc23)CC1` [Compound 6, 6-(4-Methylpiperazin-1-yl)pyrido[3,2-e][1,2,4]triazolo[4,3-a]pyrazine], the IC50 was more than 100 µM.

Regarding `CN(C)[C@@H]1CCN(c2nc3ncc(Cl)cc3n3cnnc23)C1` [Compound 9, (R)-1-(8-chloropyrido[2,3-e][1,2,4]triazolo[4,3-a]pyrazin-4-yl)-N,N-dimethylpyrrolidin-3-amine], the IC50 is more than 100 µM.

Consider `OCCNc1nc2ncc(Cl)cc2n2cnnc12` [Compound 87, 2-((8-Chloropyrido[2,3-e][1,2,4]triazolo[4,3-a]pyrazin-4-yl)amino)ethanol], for which the IC50 is more than 100 µM.

On to `Cc1nc2c(N3CC(N(C)C(=O)OC(C)(C)C)C3)nc3ncc(Cl)cc3c2o1` [Compound 90, tert-Butyl (1-(8-chloro-2-methyloxazolo[4,5-c][1,8]naphthylidine-4-yl)azetidin-3-yl)(methyl)carbamate], for which the IC50 was more than 100 µM.

With `CC1(N)CN(c2nc3ncc(Br)cc3n3cnnc23)C1` [Compound 72, 1-(8-Bromopyrido[2,3-e][1,2,4]triazolo[4,3-a]pyrazin-4-yl)-3-methylazetidin-3-amine], the IC50 was more than 100 µM.

For `CNC1CN(c2nc3ncc(N)cc3n3cnnc23)C1` [Compound 112, 4-(3-(methylamino)azetidin-1-yl)pyrido[2,3-e][1,2,4]triazolo[4,3-a]pyrazin-8-amine], the IC50 is more than 100 µM.
